In US8829014B2, “Thiazole and thiophene analogues, and their use in treating autoimmune diseases and cancers” (Board of Supervisors of Louisiana State University and …, priority 2006, dated 2014):

What was measured:
carageenan-induced edema = experiment: Carrageenan-induced rat paw edema test (anti-inflammatory activity); format: in vivo, Sprague-Dawley rats; conditions: rat paw edema, 50 mg/kg, reading 3 hours after carrageenan, [(Control−Test)/Control]×100%; for inhibition in vivo at 50 mg/kg: Rattus norvegicus, po, 3 h, read-out: % Protection P
How it was run: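 Sprague-Dawley rats (male and female, 150-250 g), fasted 18 h, given compound orally at 50 mg/kg in 0.1% sodium CMC (alternatively i.v., s.c. or i.p.). 1% carrageenan injected sub-plantar in right hind paw 1 h later. Paw displacement read again 3 h later; % protection = [(Control−Test)/Control]×100 versus saline control.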

NF-κB = experiment: TNF-α-induced NF-κB-dependent luciferase expression in HEK cells; format: cell-based; conditions: luciferase in HEK/NF-κB cells, as described in Example 398; for inhibition at 1 µM: Homo sapiens, HEK293, 1 uM, read-out: NFkB inhibition @ 1 uM
AP-1 = experiment: PMA-induced AP-1 luciferase expression in HEK cells; format: cell-based; conditions: luciferase in HEK/AP-1 cells, as described in Example 398; for inhibition at 1 µM: AP1, 1 uM

| Molecule | inhibition in vivo at 50 mg/kg (carageenan-induced edema) [%] | inhibition at 1 µM (NF-κB) [%] | inhibition at 1 µM (AP-1) [%] | % Protection P (carageenan-induced edema) [%] | NFkB inhibition @ 1 uM (NF-κB) | AP-1 inhibition @ 1 uM (AP-1) |
| --- | --- | --- | --- | --- | --- | --- |
| COc1ccc(Nc2nc(N)c(C(=O)c3ccc(C)cc3)s2)cc1 [Example 344, ([4-Amino-2-(4-methoxy-phenylamino)-thiazol-5-yl]-p-tolyl-methanone)] | 79.8 | 49 | 70.3 | – | – | – |
| COc1ccc(C(=O)c2cc(-c3ccc(Cl)cc3)c(N3CCOCC3)s2)cc1 [Example 80, [4-(4-Chloro-phenyl)-5-morpholin-4-yl-thiophen-2-yl]-(4-methoxy-phenyl)-methanone] | 18.9 | -2.91 | 30.6 | – | – | – |
| O=C(c1ccc(Cl)cc1Cl)c1sc(N2CCN(C(=O)c3ccco3)CC2)nc1-c1ccco1 [Example 374, (2,4-Dichloro-phenyl)-{2-[4-(furan-2-carbonyl)-piperazin-1-yl]-4-furan-2-yl-thiazol-5-yl}-methanone] | 62.6 | 6.25 | 46.2 | – | – | – |
| COc1c(C)cc(-c2cc(-c3ccncc3)c(N3CCOCC3)s2)nc1C [Example 100, 4-[5-(5-Methoxy-4,6-dimethyl-pyridin-2-yl)-3-pyridin-4-yl-thiophen-2-yl]-morpholine] | 54.2 | 5.21 | 47.4 | – | – | – |
| Cc1ccc(C(=O)c2cc(-c3cccnc3)c(N3CCOCC3)s2)cc1 [Example 91, (5-Morpholin-4-yl-4-pyridin-3-yl-thiophene-2-yl)-p-tolyl-methanone] | 25.3 | 1.28 | 49 | – | – | – |
| COc1ccccc1-n1c(-c2cc(-c3ccc(S(C)(=O)=O)cc3)c(N3CCOCC3)s2)nc2ccccc2c1=O [Example 297, 2-[4-(4-Methanesulphonyl-phenyl)-5-morpholin-4-yl-thiophen-2-yl]-3-(2-methoxy-phenyl)-3H-quinazolin-4-one] | 63 | 55 | 33 | – | – | – |
| O=C(CCl)Nc1ccccc1C(=O)O [Example 139, 2-(2-Chloroacetylamino) benzoic acid] | 69.6 | 62.6 | 74.4 | – | – | – |
| O=c1c2ccccc2nc(-c2cc(-c3ccc(Cl)cc3)c(N3CCOCC3)s2)n1-c1ccccc1 [Example 273, 2-[4-(4-Chloro-phenyl)-5-morpholin-4-yl-thiophen-2-yl]-3-phenyl-3H-quinazolin-4-one] | 0 | -35 | -17 | – | – | – |
| Dimethyl[carbonyl-bis(4-phenyl-1,3-thiazole-5,2-diyl)]biscarbamate [Example 130] | – | – | – | 40.78 | 12.78 | 9.2 |
| COc1ccc(Nc2nc(N)c(C(=O)c3ccccn3)s2)cc1 [Example 351, ([4-Amino-2-(4-methoxy-phenylamino)-thiazol-5-yl]-pyridin-2-yl-methanone)] | 27 | -35.9 | 51.5 | – | – | – |
| O=C(c1ccc(Cl)cc1)c1sc(N2CCN(C(=O)c3ccco3)CC2)nc1-c1ccccc1 [Example 383, (4-Chloro-phenyl)-{2-[4-(furan-2-carbonyl)-piperazin-1-yl]-4-phenyl-thiazol-5-yl}-methanone] | 62 | -0.23 | 13.3 | – | – | – |
| O=C(c1ccc(Cl)cc1)c1sc(N2CCN(C(=O)c3ccco3)CC2)nc1-c1ccco1 [Example 373, (4-Chloro-phenyl)-{2-[4-(furan-2-carbonyl)-piperazin-1-yl]-4-furan-2-yl-thiazol-5-yl}-methanone] | 42 | -6.07 | 26.9 | – | – | – |
| CC(=O)Nc1ccc(-c2cc(C(=O)c3ccncc3)sc2N2CCOCC2)cc1 [Example 75, N-{4-[2-Morpholin-4-yl-5-(pyridine-4-carbonyl)-thiophene-3-yl]-phenyl}-acetamide] | 45.7 | 17.4 | 45.5 | – | – | – |
| O=C(c1ccncc1)c1sc(N2CCN(C(=O)c3ccco3)CC2)nc1-c1ccco1 [Example 377, {2-[4-(Furan-2-carbonyl)-piperazin-1-yl]-4-furan-2-yl-thiazol-5-yl}-pyridin-4-yl-methanone] | 32 | -7.88 | 4.84 | – | – | – |
| COc1ccc(Nc2nc(N)c(C(=O)c3cccnc3)s2)cc1 [Example 349, ([4-Amino-2-(4-methoxy-phenylamino)-thiazol-5-yl]-pyridin-3-yl-methanone)] | 18.2 | -35.9 | 51.5 | – | – | – |
| Cc1ccc(C(=O)c2sc(N3CCN(C(=O)c4ccco4)CC3)nc2-c2ccco2)cc1 [Example 371, {2-[4-(Furan-2-carbonyl)-piperazin-1-yl]-4-furan-2-yl-thiazol-5-yl}-p-tolyl-methanone] | 34 | 10.4 | 25.6 | – | – | – |
| CS(=O)(=O)c1ccc(C(=O)c2cc(-c3ccc(Cl)cc3)c(N3CCOCC3)s2)cc1 [Example 84, [4-(4-Chloro-phenyl)-5-morpholin-4-yl-thiophen-2-yl]-(4-methansulfonyl-phenyl)-methanone] | 23 | -11.7 | 30.9 | – | – | – |
| CSc1ccc(C(=O)c2cc(-c3ccccc3)c(N3CCOCC3)s2)cc1 [Example 47, (4-Methylsulfanyl-phenyl)-(5-morpholin-4-yl-4-phenyl-thiophene-2-yl)-methanone] | 5 | -1.5 | 21.2 | – | – | – |
| 4-{3-(4-Methanesulfonyl-phenyl)-5-[5-methyl-5-(2,2,2-trifluoro-ethoxy)-pyridine-2-yl]-thiophene-2-yl}-morpholine [Example 53] | – | – | – | 2.08 | −2.17 | 25.04 |
| COc1ccc(-n2c(-c3cc(-c4ccc(S(C)(=O)=O)cc4)c(N4CCOCC4)s3)nc3ccccc3c2=O)cc1 [Example 303, 2-[4-(4-Methanesulphonyl-phenyl)-5-morpholin-4-yl-thiophen-2-yl]-3-(4-methoxy-phenyl)-3H-quinazolin-4-one] | 53 | 60 | 10 | – | – | – |
| CC(=O)c1ccc(-n2c(-c3cc(-c4ccncc4)c(N4CCOCC4)s3)nc3ccccc3c2=O)cc1 [Example 319, 3-(4-acetyl-phenyl)-2-(5-morpholin-4-yl-4-pyridin-4-yl-thiophen-2-yl)-3Hquinazolin-4-one] | 81 | 66 | 84 | – | – | – |
| Cc1nc(Nc2ccc(Cl)cc2)sc1C(=O)c1sc(Nc2ccc(Cl)cc2)nc1C [Example 120, Bis-[2-(4-Chloro-phenylamino)-4-methyl-thiazole-5-yl]-methanone] | 64.6 | 20.3 | 76.2 | – | – | – |
| CC(=O)Nc1ccc(-c2cc(-c3nc4ccccc4c(=O)n3-c3cccc(C)c3)sc2N2CCOCC2)cc1 [Example 286, N-{4-[2-Morpholin-4-yl-5-(4-oxo-3-m-tolyl-3-,4-dihydro-quinazolin-2-yl)-thiophene-3-yl]-phenyl}-acetamide] | – | – | – | 52 | 35 | 13 |
| COc1c(C)cnc(-c2sc(N3CCN(C(=O)c4ccco4)CC3)nc2-c2ccccc2)c1C [Example 388, Furan-2-yl-{4-[5-(4-methoxy-3,5-dimethyl-pyridin-2-yl)-4-phenyl-thiazol-2-yl]-piperazin-1-yl}-methanone] | 73.4 | 7.64 | 52.1 | – | – | – |
| O=c1c2ccccc2nc(-c2cc(-c3ccc(Cl)cc3)c(N3CCOCC3)s2)n1-c1ccc(Cl)cc1 [Example 310, 2-[4-(4-Chloro-phenyl)-5-morpholin-4-yl-thiophene-2-yl]-3-(4-chloro-phenyl)-3H-quinazolin-4-one] | 60 | 0 | 14 | – | – | – |
| CC(=O)Nc1ccc(-c2cc(C(=O)c3ccc(Cl)cc3Cl)sc2N2CCOCC2)cc1 [Example 70, N-{4-[5-(2,4-Dichloro-benzoyl)-2-morpholin-4-yl-thiophene-3-yl]-phenyl}-acetamide] | 39.2 | 18.6 | 54 | – | – | – |
| O=c1c2ccccc2nc(-c2cc(-c3ccccc3)c(N3CCOCC3)s2)n1-c1ccccc1 [Example 272, 2-(5-Morpholin-4-yl-4-phenyl-thiophene-2-yl)-3-phenyl-3H-quinazolin-4-one] | 30 | -2 | 11 | – | – | – |
| CS(=O)(=O)c1ccc(C(=O)c2cc(-c3ccncc3)c(N3CCOCC3)s2)cc1 [Example 108, (4-Methylsulfonyl-phenyl)-(5-morpholin-4-yl-4-pyridin-4-yl-thiophen-2-yl)-methanone] | 54.2 | -8.31 | 46.6 | – | – | – |
| CS(=O)(=O)c1ccc(C(=O)c2sc(N3CCN(C(=O)c4ccco4)CC3)nc2-c2ccccc2)cc1 [Example 385, {2-[4-(Furan-2-carbonyl)-piperazin-1-yl]-4-phenyl-thiazol-5-yl}-(4-methanesulfonyl-phenyl)-methanone] | 67 | -15.1 | 6.44 | – | – | – |
